Assay results reported in publication PMC7385626 (Scientific Reports, 2020).
Several values for one entry are separate records, joined by “and”; a condition that tells them apart may be missing. Equal entries are not always repeated.

Assays:
HT29 = test: BrdU Cell Proliferation Assay (BCPA); assay type: cell-based, human; conditions: BrdU ELISA, 24 h, mean ± SD of three experiments
Text: (§1) The antiproliferative activities of Ag(I) molecules and the starting molecules of the parent molecules, N-bishydeten and [Ag(CN)2]^− compound, on cells, were monitored utilizing by the BrdU Cell Proliferation Assay (BCPA) (Fig. 6).
(§2) The antiproliferative activity of the 2, 3, 4, [Ag(CN)2]^− and 5FU against various cell lines (HeLa ATCC CCL-2, C6 cells ATCC CCL-107, HT29 ATCC HTB-38, and Vero ATCC CCL-81) were preserved and maintained in Dulbecco’s modified eagle’s medium, supplemented with %2 antibiotic (Streptomycin-Penicillin) solution and 10% fetal bovine serum.
(§3) The cell suspension including 5×10^3 cells in 100 µL was supplied into the well cell plates (96-well cell). The therapies of these cells with 2, 3, 4 and [Ag(CN)2]^− in DMSO (max 0.1% DMSO) and 5-Florouracil (5 FU) molecule in DMSO (max 0.1% DMSO) separately at concentration 0.25, 0.50, 1.00, 1.50, 2.00, 2.50, 3.75, and 5.00 µg/mL were carried out. The last volume was adapted to 200 µL by mixture and DMEM and also incubated for 24 h at 37°C with 5% CO2. The antiproliferative activities of the 2, 3, 4 and [Ag(CN)2]^− were determined with using BrdU Cell proliferation ELISA Kit conforming to manufacturer’s assay.
(§4) IC50 values the concentration of a factor which required for other method of in vitro.

HT29 cells = conditions: human
Text: (§5) LDH activities were measurement at 492-630 nm using a microplate reader. The percentage cytotoxicity was find with using the equation, […], where experimental value is the test-molecule treated cells, and high control is Triton X-100 treated cells, and low standard or control (spontaneous LDH enzyme) is the untreated cells.

in vitro = conditions: human (HT-29, HeLa), rat (C6), African green monkey (Vero)
Text: as §5

CT-DNA = conditions: literature comparison; ref [59],[60]; cited from earlier work
HeLa = test: BrdU Cell Proliferation Assay (BCPA); assay type: cell-based; conditions: BrdU ELISA, 24 h, mean ± SD of three experiments
Text: as §1, §2, §3, §4

Vero = test: BrdU Cell Proliferation Assay (BCPA); assay type: cell-based; conditions: BrdU ELISA, 24 h, normal cell line, mean ± SD of three experiments
Text: as §1, §2, §3, §4

C6 = test: BrdU Cell Proliferation Assay (BCPA); assay type: cell-based; conditions: BrdU ELISA, 24 h, mean ± SD of three experiments
Text: as §1, §2, §3, §4

[1] = tested on: HeLa, HT29, C6 and Vero cells; test: BrdU Cell Proliferation Assay, range over the cell lines; assay type: cell-based; conditions: BrdU assay
Text: as §1, §2, §3, §4

E. aerogenes 2924 = test: Disc diffusion assay; assay type: cell-based, Enterobacter Aerogenes
Procedure: (§6) Therefore, the pathogen bacterial flora and the opportunistic agents may be taken into consideration both in the management of cancer patients and in individual susceptibility to cancer. Indeed, dual acting factors with antimicrobial and antiproliferative potentials can result in improved therapeutic efficacy for cancer cell patients or reduced cancer predisposition. […]. In this study, 10 microbial cultures of this part, belonging to ten types of bacterial were used. The culture was grown in Mueller–Hinton Broth (Merck) for all the bacterial strains at 36 °C. Antimicrobial test was carried out by using disc-diffusion assay utilizing 100 µL of suspension with 10^8 CFU/mL of bacteria and 10^6 CFU/mL of yeast spread on Nutrient Agar and Potato Dextrose Agar, respectively. Also, the blank disc (Oxoid = 6 mm in diameter) was impregnated with 20 µL of each substance (105 µg/disc) and placed on the inoculated agar. Negative controls ([…]) were prepared using the same solvent (water) employed to dissolve each substance. […]. The inoculated plate was incubated at 36 °C for clinical bacterial strains. Antimicrobial activities were evaluated by obtaining the zone of inhibitory effect against the test organisms.

S. gallinarum [2] = test: Serial microdilution assay (MIC); assay type: cell-based, Salmonella Gallinarum
Procedure: (§7) […]. […] Four types of gram-positive bacterial strains (St. pyogenez, B. subtilis, B. cereus, S. aureus) and five types of the gram-negative (S. enteridis, E. aerogenes, P. aeruginosa, E. coli, and S. gallinarum) were sensitive to 4 and 1. […]. The minimal inhibitory concentration value was studied for the microorganism cells, which evaluated to sensitive the substances and they tested in the disc-diffusion method. Inoculate of microorganism was prepared utilizing 12 h suspensions and broth cultures were adjusted to 0.5 McFarland turbidity standard. Each substance was dissolved in 10% dimethyl sulfoxide which diluted to the highest concentration (1000 µg/mL) for testing. […]. Also, prepared suspensions for standard microorganisms were added to each dilution in a 1:1 ratio. Growth act of microorganism cells was determined visually after incubation at 36 °C. The minimum concentration was no visible growth which was taken as the MIC.

B. subtilis ATCC6633 [3] = test: Serial microdilution assay (MIC); assay type: cell-based, Bacillus Subtilis
Procedure: as §7

E. aerogenes ATCC2924 = test: Serial microdilution assay (MIC); assay type: cell-based, Enterobacter Aerogenes
Procedure: as §7

B. subtilis ATCC6633 [4] = test: Disc diffusion assay; assay type: cell-based, Bacillus Subtilis
Procedure: as §6

St. pyogenez ATCC176 [5] = test: Disc diffusion assay; assay type: cell-based, Steptococcus Pyogerez
Procedure: as §6

BSA = BSA (Bos taurus, UniProt P02769); test: UV–Visible absorption titration, BSA binding constant; parameters: species or system Bovine
Text: UV–Visible absorption spectroscopy technique was also used to study interactions between BSA and 1–4. […] The some results of [BSA]/(εa − εf) = [BSA]/(εb − εf) + 1/[Kb(εb − εf)] in Fig. 9, used and also obtained. The binding constants for the 1–4 were found as 2.4 ± 0.22 × 10^4 M^−1, 4.3 ± 0.29 × 10^4 M^−1, 3.4 ± 0.23 × 10^4 M^−1 and 4.8 ± 0.29 × 10^4 M^−1, respectively. In Fig. 9, the increase in BSA concentrations leads to a change in the absorption of the complexes resulting in hypochromism for 1 and 3 and hyperchromism for 2 and 4.
To obtain the interaction act of the molecules with calf thymus DNA and also to determine the binding constants (Kb) UV–Visible absorption spectroscopy method was utilized. Indeed, 2.5 mg calf thymus DNA in this part was dissolved in Tris–HCl buffer and stabile pending seven days in the refrigerator. The concentration level of calf thymus DNA was calculated spectrophotometrically assay at 260 nm. This method was done according to previous studies.

S. gallinarum [6] = test: Disc diffusion assay; assay type: cell-based, Salmonella Gallinarum
Procedure: as §6

S. aureus ATCC29213 [7] = test: Serial microdilution assay (MIC); assay type: cell-based, Staphylococcus aureus
Procedure: as §7

B. cereus DSM 4312 [8] = test: Serial microdilution assay (MIC); assay type: cell-based, Bacillus Cereus
Procedure: as §7

S. enteridis ATCC13076 [9] = test: Serial microdilution assay (MIC); assay type: cell-based, Salmonella Enteritidis
Procedure: as §7

B. cereus DSM 4312 [10] = test: Disc diffusion assay; assay type: cell-based, Bacillus Cereus
Procedure: as §6

E. coli 111 [11] = test: Serial microdilution assay (MIC); assay type: cell-based, Escherichia coli
Procedure: as §7

P. aeruginosa ATCC9027 = test: Serial microdilution assay (MIC); assay type: cell-based, Pseudomonas Aureginosa
Procedure: as §7

[12] = tested on: bacterial strains (four gram-positive, five gram-negative); test: Serial microdilution assay (MIC), range over the bacterial strains; assay type: cell-based
Procedure: as §7

St. pyogenez ATCC176 [13] = test: Serial microdilution assay (MIC); assay type: cell-based, Steptococcus Pyogerez
Procedure: as §7

S. enteridis ATCC13076 [14] = test: Disc diffusion assay; assay type: cell-based, Salmonella Enteritidis
Procedure: as §6

S. aureus ATCC29213 [15] = test: Disc diffusion assay; assay type: cell-based, Staphylococcus aureus
Procedure: as §6

E. coli 111 [16] = test: Disc diffusion assay; assay type: cell-based, Escherichia coli
Procedure: as §6

Question: With `O=c1[nH]cc(F)c(=O)[nH]1` [5FU, 5-fluorouracil, reference compound] as the compound, how does the IC50 (HT29; Homo sapiens, HT-29) read?
Answer: Its IC50 is 258 ± 21 µM.

Question: And the “cytotoxicity against HT29 cells (LDH)” value (HT29 cells)?
Answer: Its value is 9–11%.

Question: And the cytotoxicity (in vitro)?
Answer: Its cytotoxicity is 15 to 25%.

Question: And the “binding constant with DNA (reported)” value (CT-DNA)?
Answer: Its value is 97000 M⁻¹.

Question: And the IC50 (HeLa; Homo sapiens, HeLa)?
Answer: Its IC50 is 276 ± 17 µM.

Question: What about the IC50 (Vero; Chlorocebus sabaeus, Vero) of the same compound?
Answer: The IC50 was 258 ± 21 µM.

Question: What about the IC50 (C6; Rattus norvegicus, C6) of the same compound?
Answer: The IC50 was 217 ± 19 µM.

Question: Which IC50 (HT29) does the source give for `N.N.[Cl][Pt][Cl]` [Cisplatin, cisplatin, reference compound] here?
Answer: The IC50 was 153 ± 14 µM.

Question: What about the IC50 ([1]; HeLa, HT29, C6, Vero) of the same compound?
Answer: The IC50 was 153 to 235 µM.

Question: And the IC50 (HeLa)?
Answer: Its IC50 is 230 ± 15 µM.

Question: What about the IC50 (Vero) of the same compound?
Answer: Its IC50 is 235 ± 19 µM.

Question: What about the IC50 (C6) of the same compound?
Answer: Its IC50 is 208 ± 23 µM.

Question: Which “antiproliferative effect (in words)” value ([1]; same administrative dose, data not shown) does the source give for `NCCN(CCO)CCO` [N-bishydeten, N, N-bis (2-hydroxyethyl) -ethylenediamine, reference compound] here?
Answer: The value was “no antiproliferative effects”.

Question: For [Ni(N-bishydeten)Ag3(CN)5] [Complex 1], which “inhibition zones, E. aerogenes 2924” value (E. aerogenes 2924) is on record?
Answer: The value was 15 ± 1.0 mm.

Question: And the “MIC, S. gallinarum” value (S. gallinarum [2])?
Answer: Its value is 31.25 µg/mL.

Question: What about the “Minimum-inhibitory concentrations (MIC), S. gallinarum” value (S. gallinarum [2]) of the same compound?
Answer: Its value is 31.25 ± 0.0 µg/mL.

Question: And the “Minimum-inhibitory concentrations (MIC), B. subtilis ATCC6633” value (B. subtilis ATCC6633 [3])?
Answer: The value was 62.50 ± 0.0 µg/mL.

Question: What about the “MIC, E. aerogenes” value (E. aerogenes ATCC2924) of the same compound?
Answer: Its value is 15.62 µg/mL.

Question: And the “Minimum-inhibitory concentrations (MIC), E. aerogenes ATCC2924” value (E. aerogenes ATCC2924)?
Answer: The value was 15.62 ± 0.0 µg/mL.

Question: And the “inhibition zones, B. subtilis ATCC6633” value (B. subtilis ATCC6633 [4])?
Answer: The value was 14 ± 1.53 mm.

Question: And the “inhibition zones, St. pyogenez ATCC176” value (St. pyogenez ATCC176 [5])?
Answer: The value was 15 ± 0.0 mm.

Question: And the “binding constant with BSA” value (BSA)?
Answer: The value was 2.4 ± 0.22 × 10^4 M^−1 and 2.4 x 10^4.

Question: What about the “inhibition zones, S. gallinarum” value (S. gallinarum [6]) of the same compound?
Answer: The value was 17 ± 0.58 mm.

Question: What about the “Minimum-inhibitory concentrations (MIC), S. aureus ATCC29213” value (S. aureus ATCC29213 [7]) of the same compound?
Answer: The value was 62.50 ± 36.08 µg/mL.

Question: And the “Minimum-inhibitory concentrations (MIC), B. cereus DSM 4312” value (B. cereus DSM 4312 [8])?
Answer: The value was 62.50 ± 18.04 µg/mL.

Question: And the “Minimum-inhibitory concentrations (MIC), S. enteridis ATCC13076” value (S. enteridis ATCC13076 [9])?
Answer: The value was 62.50 ± 17.97 µg/mL.

Question: And the “inhibition zones, B. cereus DSM 4312” value (B. cereus DSM 4312 [10])?
Answer: The value was 20 ± 1.0 mm.

Question: What about the “Minimum-inhibitory concentrations (MIC), E. coli 111” value (E. coli 111 [11]) of the same compound?
Answer: Its value is 62.50 ± 0.0 µg/mL.

Question: And the “Minimum-inhibitory concentrations (MIC), P. aeruginosa ATCC9027” value (P. aeruginosa ATCC9027)?
Answer: Its value is 62.50 ± 18.04 µg/mL.

Question: And the “MIC, joint range for 4 and 1 over the strains” value [12]?
Answer: Its value is 15.62 to 125 µg/mL.

Question: And the “MIC, St. pyogenez” value (St. pyogenez ATCC176 [13])?
Answer: The value was 15.62 µg/mL.

Question: What about the “Minimum-inhibitory concentrations (MIC), St. pyogenez ATCC176” value (St. pyogenez ATCC176 [13]) of the same compound?
Answer: The value was 15.62 ± 9.02 µg/mL.

Question: What about the “inhibition zones, S. enteridis ATCC13076” value (S. enteridis ATCC13076 [14]) of the same compound?
Answer: The value was 18 ± 0.58 mm.

Question: And the “inhibition zones, S. aureus ATCC29213” value (S. aureus ATCC29213 [15])?
Answer: The value was 18 ± 0.58 mm.

Question: And the “inhibition zones, E. coli 111” value (E. coli 111 [16])?
Answer: Its value is 19 ± 0.58 mm.
